Consider 35 compounds from ChEMBL document CHEMBL5149969, “Amyloid-β and tau aggregation dual-inhibitors: A synthetic and structure-activity relationship focused review” (Eur J Med Chem, 2021).

Bounds are passed on as bounds.

Experiment [1] concerns the target T1, Microtubule-associated protein tau (Homo sapiens, UniProt P10636). The experiment can be described thus: Inhibition of tau aggregation (unknown origin) at 20 uM relative to control.
For experiment [2], the target named is T1, Microtubule-associated protein tau. The experiment can be described thus: Inhibition of Tau (unknown origin) expressed in Escherichia coli BL21 (DE3) at 10 uM relative to control.
Experiment [3] concerns the target T2, Amyloid-beta precursor protein (Homo sapiens, UniProt P05067). Nature of the experiment: Inhibition of amyloid beta 42 (unknown origin) expressed in Escherichia coli BL21 (DE3) at 10 uM relative to control.
Experiment [4] addresses T1, Microtubule-associated protein tau. Nature of the experiment: Inhibition of tau (unknown origin) transfected in human H4 cells incubated for 20 to 24 hrs by LPECL assay. In kind it is cell-based.
Experiment [5] shares this target. Nature of the experiment: Inhibition of tau depolymerization (unknown origin) transfected in H4 cells incubated for 20 to 24 hrs by LPECL assay. In kind it is cell-based.
Experiment [6] in a line: Inhibition of amyloid beta 38 secretion transfected in human H4 cells incubated for 20 to 24 hrs by LPECL assay. In kind it is cell-based.
For experiment [7], the target named is T2, Amyloid-beta precursor protein. The experiment can be described thus: Inhibition of amyloid beta 42 transfected in human H4 cells incubated for 20 to 24 hrs by LPECL assay. In kind it is cell-based.
For experiment [8] the target is unchanged. The experiment can be described thus: Inhibition of amyloid beta 42 (unknown origin) at 20 uM relative to control.

T2 sequence (P05067 whole entry): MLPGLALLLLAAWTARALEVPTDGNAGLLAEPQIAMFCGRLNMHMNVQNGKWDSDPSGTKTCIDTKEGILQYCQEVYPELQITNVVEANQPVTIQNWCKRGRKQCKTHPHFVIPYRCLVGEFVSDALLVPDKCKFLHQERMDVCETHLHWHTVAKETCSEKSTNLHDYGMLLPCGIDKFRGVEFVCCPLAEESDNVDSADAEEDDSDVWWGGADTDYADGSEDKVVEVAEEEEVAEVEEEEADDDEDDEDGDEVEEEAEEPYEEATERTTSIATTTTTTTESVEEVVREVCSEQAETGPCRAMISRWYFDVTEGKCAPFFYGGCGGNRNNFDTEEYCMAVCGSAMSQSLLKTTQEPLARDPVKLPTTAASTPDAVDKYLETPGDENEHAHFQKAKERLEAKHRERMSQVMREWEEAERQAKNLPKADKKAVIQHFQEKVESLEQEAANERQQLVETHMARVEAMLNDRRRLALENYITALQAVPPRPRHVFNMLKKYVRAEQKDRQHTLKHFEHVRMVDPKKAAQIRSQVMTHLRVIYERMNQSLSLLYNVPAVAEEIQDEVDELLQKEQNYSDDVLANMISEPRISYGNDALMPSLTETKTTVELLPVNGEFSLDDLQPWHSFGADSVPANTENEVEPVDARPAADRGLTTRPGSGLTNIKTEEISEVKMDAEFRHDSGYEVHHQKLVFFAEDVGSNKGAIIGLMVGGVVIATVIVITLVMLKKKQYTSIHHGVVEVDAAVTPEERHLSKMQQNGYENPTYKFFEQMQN
T1 sequence (P10636 whole entry): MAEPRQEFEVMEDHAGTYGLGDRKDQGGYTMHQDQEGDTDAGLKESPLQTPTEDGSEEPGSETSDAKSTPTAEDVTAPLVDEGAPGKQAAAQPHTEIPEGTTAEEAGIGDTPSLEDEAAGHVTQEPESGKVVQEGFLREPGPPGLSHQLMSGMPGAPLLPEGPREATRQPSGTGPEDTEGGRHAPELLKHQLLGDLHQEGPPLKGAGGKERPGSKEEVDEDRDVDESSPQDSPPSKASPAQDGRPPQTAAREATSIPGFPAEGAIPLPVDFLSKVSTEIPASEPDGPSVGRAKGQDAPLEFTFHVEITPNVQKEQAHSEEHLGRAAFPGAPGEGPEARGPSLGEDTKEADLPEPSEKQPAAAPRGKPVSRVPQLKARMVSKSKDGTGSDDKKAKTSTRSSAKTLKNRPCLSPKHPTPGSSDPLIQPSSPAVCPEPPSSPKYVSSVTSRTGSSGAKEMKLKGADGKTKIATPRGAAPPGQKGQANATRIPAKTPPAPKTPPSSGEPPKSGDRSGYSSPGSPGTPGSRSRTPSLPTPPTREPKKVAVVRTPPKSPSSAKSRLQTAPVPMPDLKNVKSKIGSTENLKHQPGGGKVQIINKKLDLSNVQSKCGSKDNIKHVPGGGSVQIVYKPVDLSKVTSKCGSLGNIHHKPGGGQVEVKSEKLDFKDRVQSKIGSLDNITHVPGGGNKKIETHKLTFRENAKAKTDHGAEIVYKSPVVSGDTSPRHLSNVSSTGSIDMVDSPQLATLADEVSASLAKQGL

Consider `C[n+]1c2c(c(N)c3ccccc31)C(=O)/C(=C/c1ccccc1)CC2`, for which the inhibition (usually the drop in the measured response relative to a control, in per cent) in experiment [1] worked out at 71.2%.
As for `C[n+]1c2c(c(N)c3ccccc31)C(=O)/C(=C/c1cccs1)CC2`, in experiment [1], the inhibition is 95.3%.
Take `Cc1c(OCc2ccccc2)cccc1N1CCN(CCCCCCCCNc2c3c(nc4ccccc24)CCCC3)CC1`: the values for the inhibition in experiment [2] and in experiment [3] were 60.2% and 66.7%, respectively.
Regarding `COc1cc(/C=C/c2cc(/C=C/c3ccc(O)c(OC)c3)n(CCO)n2)ccc1O`, the IC50 – broadly, the concentration that inhibits the measured activity by half – in experiment [4] was 69 µM; in experiment [6], 13.6 µM. In experiment [5], the DC50 was 65 µM.
With `Cc1c(OCc2ccccc2)cccc1N1CCN(CCCCCCNc2c3c(nc4ccccc24)CCCC3)CC1`, the inhibition was determined as 64% in experiment [2] and 66.9% in experiment [3].
`COc1cc(/C=C/c2cc(/C=C/c3ccc(O)c(OC)c3)n(-c3ccc(Cl)nn3)n2)ccc1O`: the half-maximal inhibitory concentration (IC50) in experiment [4] was 54 µM; in experiment [6], 3.4 µM; in experiment [7], greater than 1 µM. Also, the DC50 in experiment [5] was found to be 46 µM.
In the case of `COc1cc(/C=C/c2cc(/C=C/c3ccc(O)c(OC)c3)n(C)n2)ccc1O`, the IC50 in experiment [4] turned out to be 13 µM; in experiment [6], 6.3 µM. The DC50 in experiment [5] was 8 µM.
As to `Cc1c(OCc2ccccc2)cccc1N1CCN(CCCNCc2ccccc2)CC1`, the inhibition in experiment [2] is 64.5%; in experiment [3] it was 64.9%.
Take `Cc1c(OCc2ccccc2)cccc1N1CCN(CCCCNC2CCN(Cc3ccccc3)CC2)CC1`: the inhibition stood at 62.8% in experiment [2] and 62% in experiment [3].
In the case of `CN(C)c1ccc2nc3ccc(=[N+](C)C)cc-3sc2c1`, the inhibition in experiment [1] is 80.1%.
In experiment [6], `COc1cc(/C=C/C(=O)CC(=O)/C=C/c2ccc(O)c(OC)c2)ccc1O` [CURCUMIN] yielded an IC50 greater than 20 µM.
Turning to `Cc1c(OCc2ccccc2)cccc1N1CCN(CCCCCCNCc2ccccc2)CC1`, the inhibition was determined as 64.8% in experiment [2] and 64.2% in experiment [3].
On to `COc1cc(/C=C/c2cc(/C=C/c3ccc(O)c(OC)c3)n(-c3cccc([N+](=O)[O-])c3)n2)ccc1O`, for which the IC50 was 5 µM in experiment [4] and 8.1 µM in experiment [6]. In experiment [5], this compound displayed a DC50 of 4 µM.
For `COc1cc(/C=C/c2cc(/C=C/c3ccc(O)c(OC)c3)n(-c3ccc(C(C)C)cc3)n2)ccc1O`, the IC50 was 18 µM in experiment [4], 4.7 µM in experiment [6] and greater than 1 µM in experiment [7]. In experiment [5], this compound returned a DC50 of 190 µM.
Consider `Cc1c(OCc2ccccc2)cccc1N1CCN(CCCNC2CCN(Cc3ccccc3)CC2)CC1`, for which the inhibition in experiment [2] came to 60.2%; in experiment [3] it was 55.7%.
`COc1cc(/C=C/c2cc(/C=C/c3ccc(O)c(OC)c3)[nH]n2)ccc1O` [CURCUMIN PYRAZOLE]: the IC50 in experiment [4] is 34 µM; in experiment [6] it was 5.2 µM; in experiment [7], 0.476 µM. Further, in experiment [5], the DC50 came to 17 µM.
As to `COc1cc(/C=C/c2cc(/C=C/c3ccc(O)c(OC)c3)on2)ccc1O`, the figures for the IC50 in experiment [4] and in experiment [6] were greater than 200 µM and 6.1 µM, respectively. In addition, in experiment [5], the DC50 is greater than 200 µM.
Take `Cc1c(OCc2ccccc2)cccc1N1CCN(CCNc2c3c(nc4ccccc24)CCCC3)CC1`: the inhibition in experiment [2] came to 58.6%; in experiment [3], 55.7%.
For `COc1cc(/C=C/c2cc(/C=C/c3ccc(O)c(OC)c3)n(-c3cc(Cl)cc(Cl)c3)n2)ccc1O`, the IC50 came to 10 µM in experiment [4] and 3.3 µM in experiment [6]. In addition, the DC50 in experiment [5] was greater than 200 µM.
For `O=S(=O)(c1ccccc1)n1ccc2c(N3CCN(CCCCCCNC4CCN(Cc5ccccc5)CC4)CC3)cccc21`, the inhibition in experiment [2] stood at 52.7%; in experiment [3] it was 61.8%.
As for `C[n+]1c2c(c(N)c3ccccc31)C(=O)/C(=C/c1cccc(F)c1)CC2`, the inhibition in experiment [1] stood at 86.3%.
On to `C[n+]1c2c(c(N)c3ccccc31)C(=O)/C(=C/c1cccc(Cl)c1)CC2`, for which, in experiment [1], the inhibition was found to be 98.3%.
Turning to `Cc1c(OCc2ccccc2)cccc1N1CCN(CCCCCCCNc2c3c(nc4ccccc24)CCCC3)CC1`, the figures for the inhibition in experiment [2] and in experiment [3] were 70.3% and 67.4%, respectively.
As to `C[n+]1c2c(c(N)c3ccccc31)C(=O)/C(=C/c1cccc([N+](=O)[O-])c1)CC2`, the figures for the inhibition in experiment [1] and in experiment [8] were 98.2% and 86.4%, respectively.
Regarding `COc1cc(/C=C/c2cc(/C=C/c3ccc(OCC(=O)OC(C)(C)C)c(OC)c3)on2)ccc1OCC(=O)OC(C)(C)C`, the 50% inhibitory concentration (IC50) was greater than 200 µM in experiment [4], greater than 40 µM in experiment [6] and greater than 1 µM in experiment [7]. This compound also had a DC50 in experiment [5] greater than 200 µM.
With `Cc1c(OCc2ccccc2)cccc1N1CCN(CCNC2CCN(Cc3ccccc3)CC2)CC1`, the inhibition in experiment [2] turned out to be 57.3%; in experiment [3], 54.1%.
Regarding `COc1cc(/C=C/c2cc(/C=C/c3ccc(O)c(OC)c3)n(-c3ccc([N+](=O)[O-])cc3)n2)ccc1O`, the IC50 in experiment [4] was 1.2 µM; in experiment [6], 3.5 µM; in experiment [7], greater than 1 µM. Further, the DC50 in experiment [5] was determined as 1.1 µM.
For the compound `O=S(=O)(c1ccccc1)n1ccc2c(N3CCN(CCN4CCN(Cc5cccc6c5ccn6Cc5ccccc5)CC4)CC3)cccc21`, the inhibition turned out to be 54.6% in experiment [2] and 64.8% in experiment [3].
As to `COc1cc(/C=C/c2cc(/C=C/c3ccc(O)c(OC)c3)n(Cc3ccccc3)n2)ccc1O`, the IC50 in experiment [4] is 35 µM; in experiment [6] it was 7.7 µM; in experiment [7] it was greater than 1 µM. The compound further returned a DC50 in experiment [5] of 73 µM.
For the compound `COc1cc(/C=C/c2cc(/C=C/c3ccc(O)c(OC)c3)n(-c3ccc(C)cc3)n2)ccc1O`, the IC50 was 35 µM in experiment [4], 6 µM in experiment [6] and greater than 1 µM in experiment [7]. The compound also gave a DC50 in experiment [5] greater than 200 µM.
`COc1cc(/C=C/c2cc(/C=C/c3ccc(O)c(OC)c3)n(-c3ccccc3)n2)ccc1O`: the IC50 in experiment [4] was 103 µM; in experiment [6], 6.3 µM; in experiment [7] it was greater than 1 µM. Also, the DC50 in experiment [5] was 73 µM.
For the compound `Nc1c2c(nc3ccccc13)CC/C(=C\c1ccccc1)C2=O`, the inhibition in experiment [1] came out at 18.7%.
As to `c1ccc(Cn2ccc3c(N4CCN(CCCCNc5c6c(nc7ccccc57)CCCC6)CC4)cccc32)cc1`, the figures for the inhibition in experiment [2] and in experiment [3] were 62.9% and 57.7%, respectively.
In the case of `COc1cc(/C=C/c2cc(/C=C/c3ccc(OCC(=O)O)c(OC)c3)on2)ccc1OCC(=O)O`, the 50% inhibitory concentration (IC50) in experiment [4] is greater than 200 µM; in experiment [6], greater than 40 µM; in experiment [7], greater than 1 µM. The DC50 in experiment [5] is greater than 200 µM.
With `C[n+]1c2c(c(N)c3ccccc31)C(=O)/C(=C/c1cccc3ccccc13)CC2`, in experiment [1], the inhibition came to 102%.
